This note sets out measurements from patent US9999636B2, “Insulin-mimetics as therapeutic adjuncts for bone regeneration” (Rutgers, The State University of New Jersey, priority 2010, dated 2018).

For data set [1] the following is noted: 10.0 mg/kg local, no carrier.
From the text: Diabetic Resistance (DR) BB Wistar rats used in the study were obtained from a breeding colony at UMDNJ-New Jersey Medical School (NJMS). The rats were housed under controlled environmental conditions and fed ad libitum. All research protocols were approved by the Institutional Animal Care and Use Committee at University of Medicine and Dentistry of New Jersey-New Jersey Medical School.
Doses of ZnCl2 were not based on each animal's body weight, but on a lower theoretically tolerable dose for a 290-gram BB Wistar rat, which would not elicit heavy metal poisoning or behavioral changes. This weight is over 50 grams lower than the average weight of non-diabetic BB Wistar rats at an age of approximately 90 days (the age of investigation in this study). A 0.1 ml volume of the ZnCl2 solution was administered locally via a single injection into the marrow space for each dose examined.
Data set [2] has as its system closed mid-diaphyseal femur fracture. Nature of the data set: Torsional mechanical testing of fractured femora, local ZnCl2 with or without CaSO4 carrier. In kind it is in vivo, BB Wistar rat. On the set-up: Percent Effective Shear Stress: scale not given: direction of the effect not stated beside the values. Conditions: for mode of torsional failure: femurs harvested 4 weeks post-surgery (FIG. 2). An excerpt: In addition to the biomechanical parameters determined through torsional testing, the mode of failure can also provide substantial information. The mode of torsional failure as determined by gross inspection provided an indication as to the extent of healing. A spiral failure in the mid-diaphyseal region indicated a complete union while a transverse failure through the fracture site indicated a nonunion. A combination spiral/transverse failure indicated a partial union (FIG. 2).
To prepare the ZnCl2/CaSO4 mixture, CaSO4 (2 g) were placed in glass vials. The vials were placed in an autoclave and sterilized […] in a dry cycle. CaSO4 powder (0.8 g) was mixed with 400 μl of saline or 400 μl of ZnCl2 solution (1.0 mg/kg) for one minute at room temperature. The mixture was packed into the barrel of a 1 cc sterile syringe and pushed down into the open orifice of the syringe barrel by insertion of the syringe plunger. After attaching an 18-gauge sterile needle to the syringe barrel, 0.1 ml volume of the mixture was directly injected into the rat femoral canal (non-diabetic BB Wistar rat) prior to Kirschner wire insertion and fracture.

The subject of data set [3] is posterolateral intertransverse lumbar fusion L4-L5. Nature of the data set: Radiographic grading of posterolateral lumbar spinal fusion. The class given is in vivo, Sprague-Dawley rat. The note with it: n = 10, eight weeks.
Data set [4] concerns closed mid-diaphyseal femur fracture. The note with it: four weeks post-fracture. The text has this: X-rays are taken at two-week intervals to the day of euthanasia. After euthanasia x-rays are taken as well. To take x-rays, animals will be given a half dose of anesthesia. All groups will be monitored closely for four days after surgery for infection, and the ability to ambulate freely.

[5] abbreviates: high dose 1.0 mg/kg Calcium Sulfate pellet, 1 mg/kg.
Setting [6] is: low dose 0.5 mg/kg Calcium Sulfate pellet, listed as zinc, 0.5 mg/kg.

Marks after values point to notes of the source that are not given here.

Consider `[Cl-].[Cl-].[Zn+2]` [ZnCl2, Zinc chloride], for which the “Blood Glucose 12 Hours Post-Surgery” value in data set [1] is 87.7 ± 8.5 ^a mg/dl. Besides, the “mode of torsional failure” value in data set [2] (1.0 mg/kg) and in data set [2] (3.0 mg/kg) was “spiral fracture indicative of healing” in each case. In data set [2] (10.0 mg/kg, no carrier, 4 weeks post-fracture, normalized to contralateral (intact) femur), the “Percent Effective Shear Stress” value was found to be 27 ± 11%. Further, the “time in which fracture healing resolved” value in data set [2] (applied directly to fracture site, instead of average eight to ten weeks in standard rat femur fracture model) is “four to five weeks”.
`[Zn]` [Zn]: in data set [3] (setting [5]), the “Radiographs: number graded A = solid fusion mass bilaterally” value turned out to be 7 and the “Radiographs: number graded D = Graft resorption” value stood at 0. In addition, in data set [3] (setting [6]), the “Radiographs: number graded A = solid fusion mass bilaterally” value is on record as 7/10 and the “Radiographs: number graded D = Graft resorption” value is given as 0/10.
With manganese chloride [MnCl2], the “mineralized tissue on radiographs” value in data set [4] (0.25 mg/kg, vs saline controls) was “increased mineralized tissue”. Moreover, the union on radiographs result in data set [4] (saline control had no evidence of union) is “demonstrated union at the subperiosteal bony area and at the callus”.
